From the supplement of paper PMC10307832 come the findings set out here.

What all share (assay): relative viability (nuclei count vs DMSO), 5 days (fraction); higher = more cells survive
Compound in the test “Wnt-C59 + Bortezomib”: CC1=NC=CC(=C1)C2=CC=C(C=C2)CC(=O)NC3=CC=C(C=C3)C4=CN=CC=C4 [Wnt-C59] + CC(C)C[C@H](NC(=O)[C@H](Cc1ccccc1)NC(=O)c1cnccn1)B(O)O [Bortezomib] (partner 0.002 µM)
The method, boiled down:
(§1)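 Lung cancer cell lines were pin-tool dosed in 1536-well plates on the day after seeding, with either a lone drug or a fixed anchor-drug dose plus five library-drug doses (not always all listed) in √10 steps. Nuclei were counted on 4× images after 5 days. Relative viability is the ratio of treated-well to vehicle-well nuclei counts, with each value a median of duplicate plates.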

Compound in the test “Wnt-C59 + Linsitinib”: CC1=NC=CC(=C1)C2=CC=C(C=C2)CC(=O)NC3=CC=C(C=C3)C4=CN=CC=C4 [Wnt-C59] + C[C@]1(O)C[C@@H](c2nc(-c3ccc4ccc(-c5ccccc5)nc4c3)c3c(N)nccn32)C1 [Linsitinib] (partner 1 µM)
In a few lines:
as §1

Compound in the test “Lapatinib + Linsitinib”: CS(=O)(=O)CCNCc1ccc(-c2ccc3ncnc(Nc4ccc(OCc5cccc(F)c5)c(Cl)c4)c3c2)o1 [Lapatinib] + C[C@]1(O)C[C@@H](c2nc(-c3ccc4ccc(-c5ccccc5)nc4c3)c3c(N)nccn32)C1 [Linsitinib] (partner 1 µM)
In a few lines:
as §1

Compound in the test “Wnt-C59 + Navitoclax”: CC1=NC=CC(=C1)C2=CC=C(C=C2)CC(=O)NC3=CC=C(C=C3)C4=CN=CC=C4 [Wnt-C59] + CC1(C)CCC(c2ccc(Cl)cc2)=C(CN2CCN(c3ccc(C(=O)NS(=O)(=O)c4ccc(N[C@H](CCN5CCOCC5)CSc5ccccc5)c(S(=O)(=O)C(F)(F)F)c4)cc3)CC2)C1 [Navitoclax] (partner 0.5 µM)
The method, boiled down: as §1

201T: the relative viability came to 1.14 with Wnt-C59 + Bortezomib (first compound 0.001 µM); 1.08 with Wnt-C59 + Bortezomib (first compound 0.01 µM); 1.13 in the test with Wnt-C59 + Bortezomib (first compound 0.03162 µM); 1.13 with Wnt-C59 + Bortezomib (first compound 0.1 µM); 1.02 with Wnt-C59 + Linsitinib (first compound 0.001 µM); 1.04 with Wnt-C59 + Linsitinib (first compound 0.01 µM). Further, the relative viability with Wnt-C59 + Linsitinib (first compound 0.03162 µM) was 1.06; with Wnt-C59 + Linsitinib (first compound 0.1 µM), 1.04; with Lapatinib + Linsitinib (first compound 0.02 µM) it was 0.96; in the test with Lapatinib + Linsitinib (first compound 0.06325 µM) it was 0.92; with Lapatinib + Linsitinib (first compound 0.2 µM), 1; in the test with Lapatinib + Linsitinib (first compound 0.6325 µM) it was 1.04. Besides, the relative viability stood at 0.909 with Lapatinib + Linsitinib (first compound 2 µM); 1.21 with Wnt-C59 + Navitoclax (first compound 0.001 µM); 1.2 with Wnt-C59 + Navitoclax (first compound 0.01 µM); 1.19 with Wnt-C59 + Navitoclax (first compound 0.03162 µM); 1.2 with Wnt-C59 + Navitoclax (first compound 0.1 µM).

Take A549: the relative viability is 0.568 in the test with Wnt-C59 + Linsitinib (first compound 0.001 µM); 0.498 with Wnt-C59 + Linsitinib (first compound 0.01 µM); 0.555 with Wnt-C59 + Linsitinib (first compound 0.03162 µM); 0.504 in the test with Wnt-C59 + Linsitinib (first compound 0.1 µM); 0.433 in the test with Lapatinib + Linsitinib (first compound 0.06325 µM); 0.555 with Lapatinib + Linsitinib (first compound 0.2 µM). Also, the relative viability was determined as 0.473 with Lapatinib + Linsitinib (first compound 0.6325 µM); 0.425 with Lapatinib + Linsitinib (first compound 2 µM); 1.23 with Wnt-C59 + Navitoclax (first compound 0.001 µM); 1.31 in the test with Wnt-C59 + Navitoclax (first compound 0.01 µM); 1.29 with Wnt-C59 + Navitoclax (first compound 0.03162 µM); 1.12 with Wnt-C59 + Navitoclax (first compound 0.1 µM).

As to A-427, the relative viability with Wnt-C59 + Bortezomib (first compound 0.001 µM) came out at 0.98; with Wnt-C59 + Bortezomib (first compound 0.01 µM) it was 1.01; in the test with Wnt-C59 + Bortezomib (first compound 0.03162 µM), 1; with Wnt-C59 + Bortezomib (first compound 0.1 µM) it was 0.979; with Wnt-C59 + Linsitinib (first compound 0.001 µM), 1.12; in the test with Wnt-C59 + Linsitinib (first compound 0.01 µM) it was 1.05. Besides, the relative viability stood at 1.14 in the test with Wnt-C59 + Linsitinib (first compound 0.03162 µM); 1.06 with Wnt-C59 + Linsitinib (first compound 0.1 µM); 1.05 in the test with Lapatinib + Linsitinib (first compound 0.06325 µM); 1.11 with Lapatinib + Linsitinib (first compound 0.2 µM); 1.17 in the test with Lapatinib + Linsitinib (first compound 0.6325 µM); 1.14 with Lapatinib + Linsitinib (first compound 2 µM). For the same cell line, the relative viability amounted to 0.925 with Wnt-C59 + Navitoclax (first compound 0.001 µM), 0.9 with Wnt-C59 + Navitoclax (first compound 0.01 µM), 0.943 with Wnt-C59 + Navitoclax (first compound 0.03162 µM) and 1 with Wnt-C59 + Navitoclax (first compound 0.1 µM).

For the cell line ABC-1, the relative viability in the test with Wnt-C59 + Bortezomib (first compound 0.001 µM) amounted to 0.266; with Wnt-C59 + Bortezomib (first compound 0.01 µM) it was 0.171; in the test with Wnt-C59 + Bortezomib (first compound 0.03162 µM), 0.33; with Wnt-C59 + Bortezomib (first compound 0.1 µM), 0.306; with Wnt-C59 + Linsitinib (first compound 0.001 µM), 0.909; in the test with Wnt-C59 + Linsitinib (first compound 0.01 µM), 0.759. Moreover, the relative viability with Wnt-C59 + Linsitinib (first compound 0.03162 µM) came out at 0.774; with Wnt-C59 + Linsitinib (first compound 0.1 µM) it was 0.702; with Lapatinib + Linsitinib (first compound 0.06325 µM) it was 0.813; in the test with Lapatinib + Linsitinib (first compound 0.2 µM), 0.871; in the test with Lapatinib + Linsitinib (first compound 0.6325 µM), 0.773; with Lapatinib + Linsitinib (first compound 2 µM) it was 0.504.

For the cell line BEN, the relative viability with Wnt-C59 + Bortezomib (first compound 0.001 µM) worked out at 0.821; with Wnt-C59 + Bortezomib (first compound 0.01 µM) it was 0.88; with Wnt-C59 + Bortezomib (first compound 0.03162 µM), 1.03; with Wnt-C59 + Bortezomib (first compound 0.1 µM) it was 0.878; with Wnt-C59 + Linsitinib (first compound 0.001 µM), 0.915; in the test with Wnt-C59 + Linsitinib (first compound 0.01 µM), 0.948. For the same cell line, the relative viability with Wnt-C59 + Linsitinib (first compound 0.03162 µM) turned out to be 1.02; in the test with Wnt-C59 + Linsitinib (first compound 0.1 µM), 0.88; with Lapatinib + Linsitinib (first compound 0.02 µM), 0.91; with Lapatinib + Linsitinib (first compound 0.06325 µM) it was 0.858; with Lapatinib + Linsitinib (first compound 0.2 µM), 0.878; with Lapatinib + Linsitinib (first compound 0.6325 µM), 0.769. The relative viability is 0.8 in the test with Lapatinib + Linsitinib (first compound 2 µM); 0.0424 with Wnt-C59 + Navitoclax (first compound 0.001 µM); 0.0676 in the test with Wnt-C59 + Navitoclax (first compound 0.01 µM); 0.0835 with Wnt-C59 + Navitoclax (first compound 0.03162 µM); 0.0708 in the test with Wnt-C59 + Navitoclax (first compound 0.1 µM).

Take CAL-12T: the relative viability in the test with Wnt-C59 + Bortezomib (first compound 0.001 µM) came to 0.979; with Wnt-C59 + Bortezomib (first compound 0.03162 µM) it was 0.875; in the test with Wnt-C59 + Bortezomib (first compound 0.1 µM), 1.14; with Wnt-C59 + Linsitinib (first compound 0.001 µM) it was 0.759; with Wnt-C59 + Linsitinib (first compound 0.01 µM) it was 0.752; with Wnt-C59 + Linsitinib (first compound 0.03162 µM), 0.776. For the same cell line, the relative viability in the test with Wnt-C59 + Linsitinib (first compound 0.1 µM) amounted to 0.766; with Lapatinib + Linsitinib (first compound 0.02 µM) it was 0.761; with Lapatinib + Linsitinib (first compound 0.06325 µM), 0.83; in the test with Lapatinib + Linsitinib (first compound 0.2 µM) it was 0.634; with Lapatinib + Linsitinib (first compound 0.6325 µM) it was 0.725; in the test with Lapatinib + Linsitinib (first compound 2 µM), 0.579. In addition, the relative viability with Wnt-C59 + Navitoclax (first compound 0.001 µM) is 1.35; with Wnt-C59 + Navitoclax (first compound 0.01 µM), 1.45; with Wnt-C59 + Navitoclax (first compound 0.03162 µM), 1.19; with Wnt-C59 + Navitoclax (first compound 0.1 µM) it was 1.1.

COR-L23: the relative viability in the test with Wnt-C59 + Bortezomib (first compound 0.001 µM) was determined as 1.02; with Wnt-C59 + Bortezomib (first compound 0.01 µM) it was 0.944; with Wnt-C59 + Bortezomib (first compound 0.03162 µM), 0.912; with Wnt-C59 + Bortezomib (first compound 0.1 µM), 0.95; with Wnt-C59 + Linsitinib (first compound 0.001 µM) it was 1; in the test with Wnt-C59 + Linsitinib (first compound 0.01 µM), 0.893. The relative viability in the test with Wnt-C59 + Linsitinib (first compound 0.03162 µM) was 1.08; with Wnt-C59 + Linsitinib (first compound 0.1 µM) it was 0.837; with Lapatinib + Linsitinib (first compound 0.02 µM) it was 0.955; in the test with Lapatinib + Linsitinib (first compound 0.06325 µM), 0.87; with Lapatinib + Linsitinib (first compound 0.2 µM), 0.986; with Lapatinib + Linsitinib (first compound 0.6325 µM), 0.945. In addition, the relative viability with Lapatinib + Linsitinib (first compound 2 µM) came to 0.875; in the test with Wnt-C59 + Navitoclax (first compound 0.001 µM) it was 1.13; with Wnt-C59 + Navitoclax (first compound 0.01 µM) it was 1.02; in the test with Wnt-C59 + Navitoclax (first compound 0.03162 µM), 1.17; with Wnt-C59 + Navitoclax (first compound 0.1 µM), 0.944.

As for COR-L 105, the relative viability with Wnt-C59 + Bortezomib (first compound 0.001 µM) was determined as 0.579; with Wnt-C59 + Bortezomib (first compound 0.01 µM), 0.772; with Wnt-C59 + Bortezomib (first compound 0.03162 µM) it was 0.685; with Wnt-C59 + Bortezomib (first compound 0.1 µM) it was 0.662; in the test with Wnt-C59 + Linsitinib (first compound 0.001 µM), 1.26; in the test with Wnt-C59 + Linsitinib (first compound 0.01 µM), 0.988. Further, the relative viability came to 0.765 in the test with Wnt-C59 + Linsitinib (first compound 0.03162 µM); 0.804 with Wnt-C59 + Linsitinib (first compound 0.1 µM); 0.796 in the test with Lapatinib + Linsitinib (first compound 0.02 µM); 0.772 with Lapatinib + Linsitinib (first compound 0.06325 µM); 0.954 with Lapatinib + Linsitinib (first compound 0.2 µM); 0.703 in the test with Lapatinib + Linsitinib (first compound 0.6325 µM). Further, the relative viability came to 0.272 with Lapatinib + Linsitinib (first compound 2 µM); 0.905 with Wnt-C59 + Navitoclax (first compound 0.001 µM); 0.733 in the test with Wnt-C59 + Navitoclax (first compound 0.01 µM); 0.878 with Wnt-C59 + Navitoclax (first compound 0.03162 µM); 1.02 with Wnt-C59 + Navitoclax (first compound 0.1 µM).
